US10065990B2, “Cyclic peptide compound, and preparation method, pharmaceutical composition and use thereof” (HANGZHOU GUANYU BIO-MEDICAL CO., LTD, priority 2013, dated 2018)
Like-named read-outs stand apart in the source and are kept apart here.

How the values were obtained:
HDAC7 = biological target: T1, HDAC7 (Homo sapiens, UniProt Q8WUI4); assay: HDAC biochemical activity measurement (fluorescent substrate deacetylation);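 on all read-outs here: fluorogenic deacetylation assay using acetyl-lysine substrate at 20 µM, enzyme and compound incubated 30 min at 37 °C, then developer added, fluorescence read at 360/460 nm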; details: for IC50 HDAC7: 37° C. 30 minutes
T1 sequence (Q8WUI4 1-952): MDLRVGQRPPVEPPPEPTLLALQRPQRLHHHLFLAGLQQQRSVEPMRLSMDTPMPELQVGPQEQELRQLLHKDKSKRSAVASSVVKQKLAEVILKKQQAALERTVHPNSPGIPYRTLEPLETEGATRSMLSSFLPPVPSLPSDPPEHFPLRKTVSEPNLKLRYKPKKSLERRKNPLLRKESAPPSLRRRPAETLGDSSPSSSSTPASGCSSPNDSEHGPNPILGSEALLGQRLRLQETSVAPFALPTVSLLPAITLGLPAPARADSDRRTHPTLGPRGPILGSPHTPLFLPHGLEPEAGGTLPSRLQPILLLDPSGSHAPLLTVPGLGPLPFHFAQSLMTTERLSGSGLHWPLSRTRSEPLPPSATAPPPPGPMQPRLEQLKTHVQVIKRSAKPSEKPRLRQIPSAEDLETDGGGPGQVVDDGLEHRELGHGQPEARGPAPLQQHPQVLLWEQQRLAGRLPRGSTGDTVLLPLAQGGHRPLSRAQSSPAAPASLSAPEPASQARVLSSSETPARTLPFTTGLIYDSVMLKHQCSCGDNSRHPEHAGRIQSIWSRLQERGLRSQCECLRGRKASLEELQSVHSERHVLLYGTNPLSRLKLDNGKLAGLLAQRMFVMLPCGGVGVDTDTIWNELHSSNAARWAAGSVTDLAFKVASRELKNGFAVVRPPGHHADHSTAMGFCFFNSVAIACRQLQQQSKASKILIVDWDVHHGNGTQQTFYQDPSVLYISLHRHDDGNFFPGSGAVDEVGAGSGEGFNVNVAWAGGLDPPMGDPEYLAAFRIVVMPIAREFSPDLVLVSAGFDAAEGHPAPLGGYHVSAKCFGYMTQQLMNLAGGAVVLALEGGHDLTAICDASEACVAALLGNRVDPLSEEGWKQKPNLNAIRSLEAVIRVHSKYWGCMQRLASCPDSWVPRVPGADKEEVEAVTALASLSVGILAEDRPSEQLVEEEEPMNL

[1] = test system: H1975 (non-small cell lung adenocarcinoma); assay: MTT cancer cell growth inhibition; type: cell-based; details: Homo sapiens, NCI-H1975, 72 h, MTT, 72 hours incubation, H1975 cells; read-out: GI50 H1975
Description: (§1) MTT assay principle is yellow MTT can penetrate membrane into the cell, succinic dehydrogenase of the mitochondria in living cells can make exogenous MTT reduction of insoluble in water of blue-violet acicular formazan for crystallization and deposition in the cell, crystallization can be dissolved dimethyl sulfoxide (DMSO) solution, detected its absorbance at 490 nm/570 nm wavelength by enzyme-linked immunosorbent assay, which can reflect the number of cells.
(§2) Using DMEM+10% FBS culture medium or using 1640+10% FBS culture, respectively.
(§3) a) Cells were seeded in 96-well plates with the inoculation of 1500/well, 190 μl/hole, 37° C., 5% of CO2 incubator overnight;
(§4) b) The next day each well was added 10 μl of different drugs. The final concentration of drug was 10^−5˜10^−10M, three parallel holes; 37° C., 5% CO2 culture incubator for 72 hours incubation;
(§5) c) Per well was added 20 μl 5 mg/ml of MTT, 37° C., 5% CO2 culture incubator for 4 hours incubation;
(§6) d) The supernatant was discarded. Each well was added 100 μl of DMSO and oscillation;
(§7) e) 570 nm readings. Calculate cell viability. GI50 calculation based on the results.

[2] = test system: Huh-7 (human hepatoma cells); assay: MTT cancer cell growth inhibition; type: cell-based; details: Homo sapiens, Huh-7, 72 h, MTT, 72 hours incubation, Huh-7 cells; read-out: GI50 Huh-7
Description: as §1, §2, §3, §4, §5, §6, §7

[3] = test system: MDA-MB-231 (breast cancer cells); assay: MTT cancer cell growth inhibition; type: cell-based; details: Homo sapiens, MDA-MB-231, 72 h, read-out: GI50 MDA-MB-231, MTT, 72 hours incubation, MDA-MB-231 cells
Description: as §1, §2, §3, §4, §5, §6, §7

[4] = test system: U937 (human leukemia cells); assay: MTT cancer cell growth inhibition; type: cell-based; details: Homo sapiens, U-937, 72 h, MTT, 72 hours incubation, read-out: GI50 U93
Description: as §1, §2, §3, §4, §5, §6, §7

[5] = test system: lncap (prostate cancer cells); assay: MTT cancer cell growth inhibition; type: cell-based; details: Homo sapiens, LNCaP, 72 h, MTT, 72 hours incubation, read-out: GI50 lnca
Description: as §1, §2, §3, §4, §5, §6, §7

[6] = test system: BGC-823 (human gastric cancer cells); assay: MTT cancer cell growth inhibition; type: cell-based; details: Homo sapiens, BGC-823, 72 h, MTT, 72 hours incubation, read-out: GI50 BG
Description: as §1, §2, §3, §4, §5, §6, §7

[7] = test system: Bel-7402 (human hepatoma cells); assay: MTT cancer cell growth inhibition; type: cell-based; details: Homo sapiens, Bel-7402, 72 h, MTT, 72 hours incubation, Bel-7402 cells; read-out: GI50 Bel-7402
Description: as §1, §2, §3, §4, §5, §6, §7

[8] = test system: KBM-5 (human chronic myelogenous leukemia); assay: MTT cancer cell growth inhibition; type: cell-based; details: Homo sapiens, KBM5, 72 h, MTT, 72 hours incubation, KBM-5 cells; read-out: GI50 KBM-5
Description: as §1, §2, §3, §4, §5, §6, §7

[9] = test system: K562 (human leukemia cells); assay: MTT cancer cell growth inhibition; type: cell-based; details: Homo sapiens, K562, 72 h, MTT, 72 hours incubation, K562 cells; read-out: GI50 K562
Description: as §1, §2, §3, §4, §5, §6, §7

[10] = test system: MCF-7 (human breast cancer cells); assay: MTT cancer cell growth inhibition; type: cell-based; details: Homo sapiens, MCF7, 72 h, 72 hours incubation, read-out: GI50 MCF
Description: as §1, §2, §3, §4, §5, §6, §7

[11] = test system: PANC-1 (Pac-1, human pancreatic cancer cells); assay: MTT cancer cell growth inhibition; type: cell-based; details: Homo sapiens, PANC-1, 72 h, MTT, 72 hours incubation, read-out: GI50 PAN
Description: as §1, §2, §3, §4, §5, §6, §7

[12] = test system: SGC-7901 (human gastric cancer cells); assay: MTT cancer cell growth inhibition; type: cell-based; details: Homo sapiens, SGC-7901, 72 h, MTT, 72 hours incubation, SGC-7901 cells; read-out: GI50 SGC-7901
Description: as §1, §2, §3, §4, §5, §6, §7

[13] = test system: N-87 (human gastric cancer cells); assay: MTT cancer cell growth inhibition; type: cell-based; details: Homo sapiens, 72 h, MTT, 72 hours incubation, N-87 cells; read-out: GI50 N-87
Description: as §1, §2, §3, §4, §5, §6, §7

[14] = test system: Hela (human cervical cancer cells); assay: MTT cancer cell growth inhibition; type: cell-based; details: Homo sapiens, HeLa, 72 h, MTT, 72 hours incubation, read-out: GI50 Hela
Description: as §1, §2, §3, §4, §5, §6, §7

[15] = test system: MOLT-4 (human acute lymphoblastic leukemia cells); assay: MTT cancer cell growth inhibition; type: cell-based; details: Homo sapiens, MOLT-4, 72 h, MTT, 72 hours incubation, read-out: GI50 Mol
Description: as §1, §2, §3, §4, §5, §6, §7

[16] = test system: A549 (human lung cancer cells); assay: MTT cancer cell growth inhibition; type: cell-based; details: Homo sapiens, A549, 72 h, MTT, 72 hours incubation, read-out: GI50 A54
Description: as §1, §2, §3, §4, §5, §6, §7

[17] = test system: HCC827 (human non-small cell lung cancer cells); assay: MTT cancer cell growth inhibition; type: cell-based; details: Homo sapiens, HCC827, 72 h, MTT, 72 hours incubation, HCC827 cells; read-out: GI50 HCC827
Description: as §1, §2, §3, §4, §5, §6, §7

[18] = test system: DU145 (human prostate cancer cells); assay: MTT cancer cell growth inhibition; type: cell-based; details: Homo sapiens, DU-145, 72 h, MTT, 72 hours incubation, read-out: GI50 Du1
Description: as §1, §2, §3, §4, §5, §6, §7

[19] = test system: HT1080 (human fibrosarcoma cells); assay: MTT cancer cell growth inhibition; type: cell-based; details: Homo sapiens, HT-1080, 72 h, MTT, 72 hours incubation, read-out: GI50 HT1
Description: as §1, §2, §3, §4, §5, §6, §7

[20] = test system: KBM5-T315I (human chronic myelogenous leukemia); assay: MTT cancer cell growth inhibition; type: cell-based; details: Homo sapiens, 72 h, MTT, 72 hours incubation, KBM5-T315I cells; read-out: GI50 KBM5-T315I
Description: as §1, §2, §3, §4, §5, §6, §7

SMILES | IC50 HDAC7 (HDAC7) | GI50 [1] | GI50 [2] | GI50 [3] | GI50 [4] | GI50 [5] | GI50 [6] | GI50 [7] | GI50 [8] | GI50 [9] | GI50 [10] | GI50 [11] | GI50 [12] | GI50 [13] | GI50 [14] | GI50 [15] | GI50 [16] | GI50 [17] | GI50 [18] | GI50 [20] | other results
C/C=C1\NC(=O)c2cccc(n2)CNC(=O)C[C@@H](/C=C/CCS)OC(=O)[C@H](CC)NC1=O [Example 28] | no activity | 35 nM | 73 nM | 86 nM | 2110 nM | 390 nM | 1100 nM | 92 nM | 73 nM | 35 nM | 930 nM | 20 nM | 34 nM | 42 nM | 810 nM | 80 nM | 420 nM | 37 nM | 430 nM | 51 nM | GI50 [19]: 40 nM
C/C=C1\NC(=O)c2nc(ccc2SC)CCNC(=O)C[C@@H](/C=C/CCSC(C)=O)OC(=O)[C@H](C(C)C)NC1=O [Compound 223] | no activity | 19 nM | 54 nM | 35 nM |  |  |  | 32 nM | 53 nM | 55 nM |  |  | 96 nM | 75 nM |  |  |  | 27 nM |  | 28 nM | GI50 ([4]; U937 cells): 20 nM; GI50 ([5]; lncap cells): 10 nM; GI50 ([6]; BGC-823 cells): 30 nM; GI50 ([10]; MCF-7 cells): 40 nM; GI50 ([11]; PANC-1 cells): 50 nM; GI50 ([14]; Hela cells): 50 nM; GI50 ([15]; MOLT-4 cells): 50 nM; GI50 ([16]; A549 cells): 20 nM; GI50 ([18]; DU145 cells): 60 nM; GI50 ([19]; HT1080 cells): 80 nM
C=C1NC(=O)c2ccc(F)c(n2)CNC(=O)C[C@@H](/C=C/CCS)OC(=O)[C@H](C)NC1=O [Compound 142] | no activity | 59 nM | 38 nM | 51 nM | 50 nM | 110 nM | 70 nM | 73 nM | 73 nM | 84 nM | 50 nM | 130 nM | 53 nM | 42 nM | 50 nM | 20 nM | 130 nM | 66 nM | 50 nM | 35 nM | GI50 [19]: 70 nM
C/C=C1\NC(=O)c2ccc(SCC)c(n2)CNC(=O)C[C@@H](/C=C/CCSC(=O)CCCCCCC)OC(=O)[C@H](C(C)C)NC1=O [Compound 249] |  | 76 nM | 43 nM | 29 nM |  |  |  | 41 nM | 47 nM | 72 nM |  |  | 33 nM | 45 nM |  |  |  | 23 nM |  | 27 nM | IC50 (μM) HDAC7 (HDAC7): no activity; GI50 ([4]; U937 cells): 70 nM; GI50 ([5]; lncap cells): 40 nM; GI50 ([6]; BGC-823 cells): 30 nM; GI50 ([10]; MCF-7 cells): 70 nM; GI50 ([11]; PANC-1 cells): 20 nM; GI50 ([14]; Hela cells): 80 nM; GI50 ([15]; MOLT-4 cells): 50 nM; GI50 ([16]; A549 cells): 50 nM; GI50 ([18]; DU145 cells): 30 nM; GI50 ([19]; HT1080 cells): 40 nM
C/C=C1\NC(=O)c2ccc(F)c(n2)CNC(=O)C[C@@H](/C=C/CCSC(=O)CCCCCC)OC(=O)[C@H](C(C)C)NC1=O [Example 35] | no activity | 38 nM | 46 nM | 46 nM | 30 nM | 40 nM | 60 nM | 51 nM | 75 nM | 26 nM | 50 nM | 50 nM | 61 nM | 63 nM | 70 nM | 40 nM | 60 nM | 51 nM | 20 nM | 59 nM | GI50 [19]: 50 nM
C/C=C1\NC(=O)c2ccc(F)c(n2)CNC(=O)C[C@@H](/C=C/CCS)OC(=O)[C@H](Cc2cccc3ccccc23)NC1=O [Compound 126] | no activity | 33 nM | 51 nM | 29 nM | 70 nM | 20 nM | 100 nM | 49 nM | 41 nM | 79 nM | 20 nM | 30 nM | 81 nM | 33 nM | 130 nM | 90 nM | 30 nM | 38 nM | 60 nM | 37 nM | GI50 [19]: 50 nM
